From patent US20040054130A1, “Insulin potentiating peptides” (priority 2000, published 2004)
Square brackets hold non-standard residues; d marks the D form. Ends that are not written are not given here.

Experiments:
[1] = tested on: Zucker fatty (fa/fa) rats; test: Basal blood glucose determination after i.p. peptide; type: in vivo, rat; conditions: 10 μmol/kg body weight i.p., over 150 min, vs saline
Description: Overnight-fasted Zucker fatty(fa/fa) female rats were anaesthetized with sodium pentobarbitone (60 mg/kg body weight). After 45 min, basal blood glucose samples were taken from the tail vein, followed immediately by intraperitoneal (i.p.) injection of saline (control) or the peptide analogue (test, 10 μmol/kg body weight) in 0.4 ml of saline. Blood samples were taken at 15, 30, 60, 90, 120, 150 minutes after injection, and the blood glucose level in each sample was measured immediately by the glucose oxidase method, using a YSI Model-2300 STAT glucose analyzer (Yellow Spring, Ohio). Six animals for each group were used.
The reduction of basal blood glucose levels in animals by different peptide analogues administered intraperitoneally (i.p.)at a dose of 10 μmol/kg body weight was measured for over 150 min.

C57BL/6J ob/ob mice = test: Intraperitoneal glucose tolerance test (IPGTT) after chronic administration; type: in vivo, mouse
Description: An intraperitoneal glucose tolerance test was conducted to determine whether the clearance of a glucose load was enhanced. […], five receiving saline and five receiving peptide 3. At 14 days after chronic administration of saline or peptide 3, mice were fasted for 4 hours, then anaesthetized and eye-bled for day 14 plasma metabolite analysis. Half of each saline or peptide 3 treatment group was given a single intraperitoneal injection of glucose (1 g/kg dissolved in saline), and the other half saline (equivalent dose). Mice were eye-bled at 30, 60 and 120 minutes after glucose administration, and blood glucose levels were determined.

Substance: Arg-D-Ala-Phe-Phe-NH2 (R[dA]FF-NH2; N-terminus assumed; SMILES C[C@@H](NC(=O)[C@@H](N)CCCNC(=N)N)C(=O)N[C@@H](Cc1ccccc1)C(=O)N[C@@H](Cc1ccccc1)C(N)=O) [Peptide 3]
- hypoglycaemic effect (reduction of basal blood glucose level) [1]: significant hypoglycaemic effects
- hypoglycaemic effect (reduction of basal blood glucose level) ([1]; listed as Arg-D-Ala-Phe-Phe amide): Increased potency
- increase in plasma glucose after glucose bolus (C57BL/6J ob/ob mice; 30 min after 1 g/kg glucose i.p.): 115%
- reduction of blood glucose compared to saline-treated mice (C57BL/6J ob/ob mice; 120 min after glucose injection): 47%
- lower basal blood glucose level compared to saline-treated mice (C57BL/6J ob/ob mice; prior to glucose injection, day 14): 46.1%
